Our source for the IC50 values is ChEMBL document CHEMBL1157924, “Exploration of secondary and tertiary pharmacophores in unsymmetrical N,N'-diaryl urea inhibitors of soluble epoxide hydrolase” (Bioorg Med Chem Lett, 2010).

A word on the pIC50: it is −log10 of the IC50, conventionally taken in molar units.

pIC50: −log10 of the molar value.

The target in this experiment is T1, Bifunctional epoxide hydrolase 2 (Homo sapiens, UniProt P34913).
T1 sequence (P34913 whole entry): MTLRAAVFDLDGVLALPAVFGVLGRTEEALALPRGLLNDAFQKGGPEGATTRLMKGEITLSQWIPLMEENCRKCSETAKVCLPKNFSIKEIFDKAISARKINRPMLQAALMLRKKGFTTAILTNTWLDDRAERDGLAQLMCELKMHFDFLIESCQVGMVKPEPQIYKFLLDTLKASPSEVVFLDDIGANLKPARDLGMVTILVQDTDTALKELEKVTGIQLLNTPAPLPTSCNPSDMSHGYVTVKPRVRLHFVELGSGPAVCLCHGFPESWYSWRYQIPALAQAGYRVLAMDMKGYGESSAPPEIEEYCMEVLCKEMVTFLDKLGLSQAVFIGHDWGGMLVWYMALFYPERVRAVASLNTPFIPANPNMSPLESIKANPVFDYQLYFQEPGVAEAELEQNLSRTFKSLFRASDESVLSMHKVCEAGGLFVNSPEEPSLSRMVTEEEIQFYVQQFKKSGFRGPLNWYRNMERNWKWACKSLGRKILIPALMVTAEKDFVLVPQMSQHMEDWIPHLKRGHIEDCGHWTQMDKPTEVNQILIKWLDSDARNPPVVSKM
The experiment can be described thus: Inhibition of soluble epoxide hydrolase by fluorescence assay.
`O=C(Nc1ccc(F)cc1)Nc1ccc(C(=O)NCCN2CCOCC2)cc1` had a pIC50 of 6.85.

`O=C(Nc1ccc(Cl)cc1)Nc1ccc(C(=O)NCCN2CCOCC2)cc1` showed a pIC50 of 7.80.

`O=C(Nc1ccc(C(=O)NCCN2CCOCC2)cc1)Nc1ccc(C(F)(F)F)cc1`: the negative logarithm of the IC50 (pIC50) was 9.00.

The compound `O=C(Nc1ccc(OC(F)(F)F)cc1)Nc1ccc(C(=O)NCCN2CCOCC2)cc1` showed a negative logarithm of the IC50 (pIC50) of 8.70.

With `CN1CCN(C(=O)c2ccc(NC(=O)Nc3ccc(C(F)(F)F)cc3)cc2F)CC1`, the negative logarithm of the IC50 (pIC50) was 8.40.

For `O=C(Nc1ccc(C(F)(F)F)cc1)Nc1ccc(C(=O)NCCN2CCCC2)c(F)c1`, the pIC50 was 7.72.

`O=C(Nc1ccccc1)Nc1ccc(C(=O)NCCN2CCOCC2)cc1`: the negative-log IC50 (pIC50) is 6.49.

On to `O=C(Nc1ccc(Cl)cc1)Nc1ccc(F)c(C(=O)NCCN2CCCC2)c1`, for which the pIC50 was 6.12.

Compound `O=C(Nc1ccc(Cl)cc1)Nc1ccc(F)c(C(=O)NCCN2CCOCC2)c1` had a pIC50 of 7.42.

Turning to `O=C(Nc1ccc(C(F)(F)F)cc1)Nc1ccc(F)c(C(=O)NCCN2CCOCC2)c1`, the negative-log IC50 (pIC50) was 7.74.

The compound `O=C(Nc1ccc(C(=O)Nc2cccnc2)cc1)Nc1ccc(C(F)(F)F)cc1` gave a negative logarithm of the IC50 (pIC50) of 8.10.

`O=C(Nc1ccc(C(F)(F)F)cc1)Nc1ccc(F)c(C(=O)N2CCOCC2)c1` had a negative logarithm of the IC50 (pIC50) of 8.10.

For `O=C(Nc1ccc(C(=O)N2CCOCC2)cc1)Nc1ccc(C(F)(F)F)cc1`, the pIC50 was 8.30.

With `O=C(Nc1ccc(OC(F)(F)F)cc1)Nc1ccc(C(=O)N2CCOCC2)cc1`, the negative-log IC50 (pIC50) was 8.40.

`O=C(Nc1ccc(C(=O)NCC(=O)N2CCOCC2)cc1)Nc1ccc(C(F)(F)F)cc1` showed a pIC50 of 8.52.

For `O=C(O)CNC(=O)c1ccc(NC(=O)NC23CC4CC(CC(C4)C2)C3)cc1`, the pIC50 is 6.31.

As for `O=C(Nc1ccccc1)Nc1cccc(S(=O)(=O)CCCN2CCOCC2)c1`, the pIC50 is 7.00.

`O=C(Nc1ccc(C(F)(F)F)cc1)Nc1cccc(S(=O)(=O)CCCN2CCOCC2)c1` showed a negative-log IC50 (pIC50) of 9.00.

`O=C(O)CCCNC(=O)c1ccc(NC(=O)Nc2ccc(C(F)(F)F)cc2)cc1` gave a pIC50 of 7.72.

For the compound `O=C(O)COCCNC(=O)c1ccc(NC(=O)NC23CC4CC(CC(C4)C2)C3)cc1`, the pIC50 was 7.10.

For `O=C(Nc1ccc(Cl)cc1)Nc1ccc(C(=O)N2CCC(N3CCOCC3)CC2)cc1`, the pIC50 is 6.63.

The compound `O=C(Nc1ccccc1)Nc1ccc(C(=O)N2CCOCC2)cc1` gave a pIC50 of 6.60.

Consider `O=C(Nc1ccc(F)cc1)Nc1ccc(C(=O)N2CCOCC2)cc1`, for which the pIC50 is 6.77.

`O=C(Nc1ccc(C(=O)c2ccc(C(=O)O)cc2)cc1)Nc1ccc(C(F)(F)F)cc1` showed a pIC50 of 7.70.

`O=C(O)CNC(=O)c1cccc(NC(=O)NC23CC4CC(CC(C4)C2)C3)c1`: the negative-log IC50 (pIC50) is 6.10.

Consider `O=C(Nc1ccc(Cl)cc1)Nc1ccc(C(=O)N2CCOCC2)cc1`, for which the pIC50 is 7.74.

`O=C(Nc1ccc(C(F)(F)F)cc1)Nc1ccc(S(=O)(=O)N2CCOCC2)cc1` gave a negative-log IC50 (pIC50) of 9.00.

`O=C(Nc1ccccc1)Nc1ccc(S(=O)(=O)CCCN2CCOCC2)cc1` showed a pIC50 of 7.27.

As to `CN(CC(=O)O)C(=O)c1cccc(NC(=O)NC23CC4CC(CC(C4)C2)C3)c1`, the pIC50 is 6.64.

In turn, `O=C(Nc1ccc(C(F)(F)F)cc1)Nc1ccc(S(=O)(=O)CCCN2CCOCC2)cc1` showed a negative-log IC50 (pIC50) of 9.00.

In turn, `CC(C)N1CCN(S(=O)(=O)c2cccc(NC(=O)Nc3ccc(C(F)(F)F)cc3)c2)CC1` gave a negative logarithm of the IC50 (pIC50) of 8.52.

`CC(C)N1CCN(S(=O)(=O)c2ccc(NC(=O)Nc3ccc(C(F)(F)F)cc3)cc2)CC1` had a pIC50 of 8.30.

For the compound `O=C(Nc1ccc(C(F)(F)F)cc1)Nc1ccc(S(=O)(=O)NCCN2CCOCC2)cc1`, the pIC50 was 8.52.

In turn, `O=C(Nc1ccc(C(F)(F)F)cc1)Nc1cccc(S(=O)(=O)N2CCOCC2)c1` gave a pIC50 of 9.00.

`CN(CC(=O)O)C(=O)c1ccc(NC(=O)NC23CC4CC(CC(C4)C2)C3)cc1` gave a pIC50 of 6.70.

As to `O=C(Nc1ccc(C(F)(F)F)cc1)Nc1ccc(C(=O)NCCN2CCOCC2)c(F)c1`, the pIC50 is 8.70.

`CN1CCN(C(=O)c2ccc(NC(=O)Nc3ccc(OC(F)(F)F)cc3)cc2)CC1` gave a negative-log IC50 (pIC50) of 8.15.

Regarding `CC(C)N1CCN(C(=O)c2ccc(NC(=O)Nc3ccc(C(F)(F)F)cc3)cc2)CC1`, the negative logarithm of the IC50 (pIC50) is 8.70.

For the compound `CC(C)N1CCN(C(=O)c2ccc(NC(=O)Nc3ccc(OC(F)(F)F)cc3)cc2)CC1`, the pIC50 was 8.40.

With `O=C(Nc1ccc(Cl)cc1)Nc1ccc(C(=O)N2CCOCC2)c(F)c1`, the pIC50 was 7.96.

`O=C(Nc1ccc(C(F)(F)F)cc1)Nc1ccc(C(=O)N2CCOCC2)c(F)c1` showed a pIC50 of 8.70.

Regarding `O=C(Nc1ccc(C(=O)N2CCNCC2)cc1)NC12CC3CC(CC(C3)C1)C2`, the pIC50 is 7.92.

`CN1CCN(C(=O)c2ccc(NC(=O)Nc3ccc(C(F)(F)F)cc3)cc2)CC1` gave a pIC50 of 7.85.

The compound `O=C(O)CCCNC(=O)c1cccc(NC(=O)Nc2ccc(C(F)(F)F)cc2)c1` gave a pIC50 of 6.92.

For `O=C(O)COCCNC(=O)c1cccc(NC(=O)NC23CC4CC(CC(C4)C2)C3)c1`, the negative logarithm of the IC50 (pIC50) was 6.89.

In turn, `O=C(Nc1ccc(C(F)(F)F)cc1)Nc1cccc(C(=O)c2ccc(C(=O)O)cc2)c1` showed a pIC50 of 7.57.

On to `O=C(Nc1ccc(C(=O)NCCN2CCCC2)cc1)Nc1ccc(C(F)(F)F)cc1`, for which the negative-log IC50 (pIC50) is 7.32.

Turning to `O=C(Nc1ccc(C(=O)NCCN2CCOCC2)cc1)Nc1ccc(C2CCCCC2)cc1`, the negative logarithm of the IC50 (pIC50) is 7.72.

Compound `O=C(Nc1ccc(C(=O)NCCN2CCOCC2)cc1)NC12CC3CC(CC(C3)C1)C2` gave a negative logarithm of the IC50 (pIC50) of 8.52.

The compound `O=C(Nc1ccc(Cl)cc1)Nc1cccc(C(=O)NCCN2CCOCC2)c1` gave a pIC50 of 6.89.

Take `O=C(Nc1ccc(C(F)(F)F)cc1)Nc1cccc(C(=O)NCCN2CCOCC2)c1`: the negative logarithm of the IC50 (pIC50) is 7.66.

`O=C(Nc1ccc(C(F)(F)F)cc1)Nc1cccc(C(=O)Nc2cccnc2)c1` had a pIC50 of 7.74.

The compound `COCCNC(=O)c1cccc(NC(=O)NC23CC4CC(CC(C4)C2)C3)c1` had a pIC50 of 6.96.

`CN1CCN(C(=O)c2cc(NC(=O)Nc3ccc(C(F)(F)F)cc3)ccc2F)CC1` showed a pIC50 of 7.80.

`O=C(Nc1ccc(Cl)cc1)Nc1cccc(C(=O)N2CCC(N3CCOCC3)CC2)c1` showed a negative logarithm of the IC50 (pIC50) of 7.33.

The compound `O=C(Nc1ccc(Cl)cc1)Nc1cccc(C(=O)N2CCOCC2)c1` showed a negative logarithm of the IC50 (pIC50) of 7.31.

On to `CN1CCN(C(=O)c2cccc(NC(=O)Nc3ccc(C(F)(F)F)cc3)c2)CC1`, for which the negative-log IC50 (pIC50) was 7.92.

`CC(C)N1CCN(C(=O)c2cccc(NC(=O)Nc3ccc(C(F)(F)F)cc3)c2)CC1`: the pIC50 is 7.82.

Turning to `O=C(Nc1ccc(C(F)(F)F)cc1)Nc1cccc(C(=O)NCCN2CCCC2)c1`, the negative logarithm of the IC50 (pIC50) was 7.17.

For the compound `O=C(Nc1ccc(C2CCCCC2)cc1)Nc1cccc(C(=O)NCCN2CCOCC2)c1`, the pIC50 is 6.55.

On to `CN1CCN(C(=O)c2ccc(NC(=O)Nc3ccc(F)cc3)cc2)CC1`, for which the negative logarithm of the IC50 (pIC50) was 6.80.

With `O=C(Nc1cccc(C(=O)NCCN2CCOCC2)c1)NC12CC3CC(CC(C3)C1)C2`, the negative logarithm of the IC50 (pIC50) is 7.21.

For the compound `O=C(Nc1ccccc1)Nc1cccc(C(=O)NCCN2CCOCC2)c1`, the pIC50 is 5.55.

Consider `COCCNC(=O)c1ccc(NC(=O)NC23CC4CC(CC(C4)C2)C3)cc1`, for which the pIC50 was 7.27.

As to `O=C(Nc1ccc(C(F)(F)F)cc1)Nc1cccc(S(=O)(=O)NCCN2CCOCC2)c1`, the pIC50 was 9.00.

Compound `CN1CCN(C(=O)c2cccc(NC(=O)NC34CC5CC(CC(C5)C3)C4)c2)CC1` showed a pIC50 of 7.44.
